Measured values published in ChEMBL document CHEMBL2069197 (ACS Med Chem Lett, 2012).
Converted amounts (≈) assume the structure as drawn.

How the values were obtained:
Rattus norvegicus [1] = test: Drug metabolism in Sprague-Dawley rat plasma assessed as progesterone formation at 4 mg/kg, iv; format: ADME, organism-based; set-up: dose 4 mg/kg, route intravenous; settings: in vivo
[2] = Aqueous solubility of the compound in phosphate buffered saline after 90 mins by laser nephelometry at pH 7.4; format: physicochemical
[3] = Stability in cortical neurons assessed as drug metabolism at 5 uM; format: ADME; settings: cortical neurone
[4] = Aqueous solubility of the compound in phosphate buffered saline after 90 mins by laser nephelometry at pH 4; format: physicochemical
Rattus norvegicus [5] = test: Neuroprotective activity in rat assessed as reduction in bilateral cortical contusion-induced cerebral edema at 4 mg/kg, iv administered as single dose 1 hr post-injury measured after 24 hrs relative to untreated; format: functional; set-up: scale not given: the % may be the effect or the level left
[6] = Neuroprotective activity in cortical neurons assessed as reduction in glutamate-induced cell death at 5 uM incubated for 24 hrs prior to glutamate-challenge measured after 24 hrs by MTT assay; format: functional, Cortical neurone; set-up: scale not given: the % may be the effect or the level left
[7] = Half life in aqueous media at pH 7; format: physicochemical; settings: for half-life: aqueous media; for t1/2: buffer
in vivo = settings: Sprague-Dawley, rat, plasma, iv, 4 mg/kg
Description: Half life in Sprague-Dawley rat plasma at 4 mg/kg, iv

[8] = Drug metabolism in rat liver S9 fraction assessed as progesterone formation; format: ADME, subcellular
Liver = test: Metabolic stability in rat liver S9 fraction assessed as compound remaining; format: ADME, subcellular
Rattus norvegicus [9] = test: Neuroprotective activity in rat assessed as reduction in bilateral cortical contusion-induced cerebral edema at 8 mg/kg, ip administered at 1 hr post-injury followed by 8 mg/kg, sc administered 6 hrs post-injury measured after 24 hrs relative to untreated control; format: functional; set-up: scale not given: the % may be the effect or the level left
Rattus norvegicus [10] = test: Drug metabolism in Sprague-Dawley rat assessed as progesterone formation at 10 mg/kg, im administered as single dose by LC-MS/MS analysis; format: ADME, organism-based; set-up: dose 10 mg/kg, route intramuscular; settings: in vivo
Rattus norvegicus [11] = test: Drug metabolism in Sprague-Dawley rat assessed as free oxime formation at 10 mg/kg, iv administered as single dose by LC-MS/MS analysis; format: ADME, organism-based; set-up: dose 10 mg/kg, route intravenous; settings: in vivo
Rattus norvegicus [12] = test: Drug metabolism in Sprague-Dawley rat assessed as free oxime formation at 10 mg/kg, im administered as single dose by LC-MS/MS analysis; format: ADME, organism-based; set-up: dose 10 mg/kg, route intramuscular; settings: in vivo
Rattus norvegicus [13] = test: Metabolic stability in Sprague-Dawley rat assessed as compound remaining at 10 mg/kg, iv administered as single dose by LC-MS/MS analysis; format: ADME, organism-based; set-up: dose 10 mg/kg, route intravenous; settings: in vivo
Plasma [14] = test: Drug metabolism human plasma assessed as free oxime formation at 10 uM by LC-MS/MS analysis; format: ADME, cell-free
Rattus norvegicus [15] = test: Drug metabolism in Sprague-Dawley rat assessed as progesterone formation at 10 mg/kg, iv administered as single dose by LC-MS/MS analysis; format: ADME, organism-based; set-up: dose 10 mg/kg, route intravenous; settings: in vivo
[16] = Drug metabolism in rat liver S9 fraction assessed as free oxime formation; format: ADME, subcellular
Rattus norvegicus [17] = test: Drug metabolism in Sprague-Dawley rat assessed as compound remaining at 10 mg/kg, im administered as single dose by LC-MS/MS analysis; format: ADME, organism-based; set-up: dose 10 mg/kg, route intramuscular; settings: in vivo
Plasma [18] = test: Drug metabolism rat plasma assessed as free oxime formation at 10 uM by LC-MS/MS analysis; format: ADME, cell-free
[19] = Neuroprotective activity in cortical neurons assessed as reduction in glutamate-induced cell death at 10 uM incubated for 24 hrs prior to glutamate-challenge measured after 24 hrs by MTT assay; format: functional, Cortical neurone; set-up: scale not given: the % may be the effect or the level left
[20] = Neuroprotective activity in cortical neurons assessed as reduction in glutamate-induced cell death at 1 uM incubated for 24 hrs prior to glutamate-challenge measured after 24 hrs by MTT assay; format: functional, Cortical neurone; set-up: scale not given: the % may be the effect or the level left
[21] = Half life in human plasma; format: ADME, cell-free
[22] = Neuroprotective activity in cortical neurons assessed as reduction in glutamate-induced cell death at 20 uM incubated for 24 hrs prior to glutamate-challenge measured after 24 hrs by MTT assay; format: functional, Cortical neurone; set-up: scale not given: the % may be the effect or the level left

SMILES | solubility kinetic at 1.5 h [2] [µM] | Stability [3] | solubility kinetic at 1.5 h [4] [µM] | Activity [6] [%] | half-life [7] [h] | also measured
CC(=O)[C@H]1CC[C@H]2[C@@H]3CCC4=C/C(=N/O)CC[C@]4(C)[C@H]3CC[C@]12C | < 45 | Stable | < 45 | 21 | > 240 | Drug metabolism (Rattus norvegicus [1]): Not Active; Activity (Rattus norvegicus [5]): 60%; half-life (in vivo): 2.7 h
C/C(=N\O)[C@H]1CC[C@H]2[C@@H]3CCC4=CC(=O)CC[C@]4(C)[C@H]3CC[C@]12C |  | Stable |  |  |  | Drug metabolism [8]: Not Active; Stability (Liver): Stable
CO/N=C(\C)[C@H]1CC[C@H]2[C@@H]3CCC4=CC(=O)CC[C@]4(C)[C@H]3CC[C@]12C | < 25 | Stable | < 25 |  | > 240 | 
C/C(=N\OCCN1CCOCC1)[C@H]1CC[C@H]2[C@@H]3CCC4=CC(=O)CC[C@]4(C)[C@H]3CC[C@]12C | 108 (≈ 47.8 µg/mL) | Stable | > 450 | 26 | > 240 | 
CC(=O)O/N=C(\C)[C@H]1CC[C@H]2[C@@H]3CCC4=CC(=O)CC[C@]4(C)[C@H]3CC[C@]12C | 100 (≈ 37.2 µg/mL) | Stable | 180 (≈ 66.9 µg/mL) |  |  | 
C/C(=N\OC(=O)[C@@H](N)C(C)C)[C@H]1CC[C@H]2[C@@H]3CCC4=CC(=O)CC[C@]4(C)[C@H]3CC[C@]12C.Cl | 146 | Stable | > 645 | 24 | 11.3 | Activity (Rattus norvegicus [9]): 56%; Drug metabolism (Rattus norvegicus [10]): Not Active; Drug metabolism (Rattus norvegicus [11]): Active; Drug metabolism (Rattus norvegicus [12]): Active; Drug metabolism [8]: Active; Stability (Rattus norvegicus [13]): Unstable; Drug metabolism (Plasma [14]): Active; Drug metabolism (Rattus norvegicus [15]): Active; Drug metabolism [16]: Active; Stability (Rattus norvegicus [17]): Unstable; Drug metabolism (Plasma [18]): Active
C/C(=N\OC(=O)[C@@H]1CCCN1)[C@H]1CC[C@H]2[C@@H]3CCC4=CC(=O)CC[C@]4(C)[C@H]3CC[C@]12C | 34 (≈ 14.5 µg/mL) | Stable | 395 (≈ 169 µg/mL) | 21 |  | Activity [19]: 33%
C/C(=N\OC(=O)[C@@H]1CCC[N+]1(C)C)[C@H]1CC[C@H]2[C@@H]3CCC4=CC(=O)CC[C@]4(C)[C@H]3CC[C@]12C.[I-] | 51 | Stable | 345 |  | 0.833 | 
C/C(=N\OC(=O)CN(C)C)[C@H]1CC[C@H]2[C@@H]3CCC4=CC(=O)CC[C@]4(C)[C@H]3CC[C@]12C | 171 (≈ 70.9 µg/mL) | Stable | 449 (≈ 186 µg/mL) |  |  | 
C/C(=N\OC(=O)C[N+](C)(C)C)[C@H]1CC[C@H]2[C@@H]3CCC4=CC(=O)CC[C@]4(C)[C@H]3CC[C@]12C.[I-] | 45 | Stable | > 540 |  | 0.933 | 
C/C(=N\OC(=O)CN1CCOCC1)[C@H]1CC[C@H]2[C@@H]3CCC4=CC(=O)CC[C@]4(C)[C@H]3CC[C@]12C | 215 (≈ 98.2 µg/mL) | Stable | 215 (≈ 98.2 µg/mL) |  |  | 
C/C(=N\OC(=O)CN1CCN(C)CC1)[C@H]1CC[C@H]2[C@@H]3CCC4=CC(=O)CC[C@]4(C)[C@H]3CC[C@]12C | 145 (≈ 68.1 µg/mL) | Stable | 153 (≈ 71.9 µg/mL) |  | 70.6 | 
C/C(=N\OC(=O)c1cccnc1)[C@H]1CC[C@H]2[C@@H]3CCC4=CC(=O)CC[C@]4(C)[C@H]3CC[C@]12C | < 35 | Stable | < 35 | 20 |  | t1/2 [7]: ND(Insoluble)
C/C(=N\OC(=O)c1ccc[n+](C)c1)[C@H]1CC[C@H]2[C@@H]3CCC4=CC(=O)CC[C@]4(C)[C@H]3CC[C@]12C.[I-] | 212 | Stable | 349 | 0 | 3.1 | Activity [20]: 14%
C/C(=N\OC(=O)c1ccc(CN)cc1)[C@H]1CC[C@H]2[C@@H]3CCC4=CC(=O)CC[C@]4(C)[C@H]3CC[C@]12C.Cl | < 30 | Stable | < 30 |  |  | t1/2 [7]: ND(Insoluble)
C/C(=N\OC(=O)c1ccc(CN2CCN(C)CC2)cc1)[C@H]1CC[C@H]2[C@@H]3CCC4=CC(=O)CC[C@]4(C)[C@H]3CC[C@]12C | < 30 | Stable | < 30 |  |  | t1/2 [7]: ND(Insoluble)
C/C(=N\OC(=O)C1CCNCC1)[C@H]1CC[C@H]2[C@@H]3CCC4=CC(=O)CC[C@]4(C)[C@H]3CC[C@]12C.Cl | 247 | Stable | 247 | 4 | 94.8 | Activity [19]: 24%
C/C(=N\OC(=O)C1CCN(C)CC1)[C@H]1CC[C@H]2[C@@H]3CCC4=CC(=O)CC[C@]4(C)[C@H]3CC[C@]12C | 108 (≈ 49.1 µg/mL) | Stable | > 660 |  |  | 
C/C(=N\OC(=O)C1CC[N+](C)(C)CC1)[C@H]1CC[C@H]2[C@@H]3CCC4=CC(=O)CC[C@]4(C)[C@H]3CC[C@]12C.[I-] | > 500 | Stable | > 500 | 0 | 70.6 | 
C/C(=N\OC(=O)[C@@H]1CCCNC1)[C@H]1CC[C@H]2[C@@H]3CCC4=CC(=O)CC[C@]4(C)[C@H]3CC[C@]12C.Cl | 428 | Stable | > 500 |  | 38.5 | 
C/C(=N\OC(=O)[C@H]1CCCNC1)[C@H]1CC[C@H]2[C@@H]3CCC4=CC(=O)CC[C@]4(C)[C@H]3CC[C@]12C.Cl | 314 | Stable | 314 |  | 40.8 | 
CC(=O)[C@H]1CC[C@H]2[C@@H]3CCC4=C/C(=N/OC(=O)[C@@H](N)C(C)C)CC[C@]4(C)[C@H]3CC[C@]12C.Cl | 172 | Stable | 322 | 27 | 10.1 | Activity (Rattus norvegicus [9]): 59%; Drug metabolism (Rattus norvegicus [10]): Not Active; Drug metabolism (Rattus norvegicus [11]): Active; Drug metabolism (Rattus norvegicus [12]): Active; Stability (Rattus norvegicus [13]): Unstable; Drug metabolism (Plasma [14]): Active; Drug metabolism (Rattus norvegicus [15]): Active; Stability (Rattus norvegicus [17]): Unstable; Drug metabolism (Plasma [18]): Active
CC(=O)[C@H]1CC[C@H]2[C@@H]3CCC4=CC(=O)CC[C@]4(C)[C@H]3CC[C@]12C [PROGESTERONE] | < 25 |  | < 25 | 4 | > 240 | Activity (Rattus norvegicus [9]): 62%; half-life [21]: 0.417 h; Activity [22]: 42%
